Experimental data reported in patent publication US20230011571A1, “SMALL MOLECULE FURIN INHIBITORS FOR TREATING INFECTIOUS DISEASES” (BP Asset V, Inc., priority 2019, published 2023).

How the values were obtained:
Assay type in all cases: cell-based
Marburg virus (MARV) = assay: organism not typed; details: Vero, 72 h, read-out: Percent viral inhibition MARV
[1] = test system: Chikungunya virus (CHIKV); assay: microbe, parasite or virus in culture; details: Chikungunya virus, Vero, 48 h, read-out: Percent viral inhibition CHKV
dengue virus (DENV) = assay: microbe, parasite or virus in culture; details: Dengue virus, Vero, 120 h, read-out: Percent viral inhibition DENY

| Structure (SMILES) | inhibition at 1 µM (Marburg virus (MARV)) [%] | inhibition at 1 µM [1] [%] | inhibition at 1 µM (dengue virus (DENV)) [%] |
| --- | --- | --- | --- |
| CN1CCN(c2ncc(Oc3cc(CN4CCC(CC(=O)O)CC4)cc(-c4cc(Cl)cc(Cl)c4)n3)cn2)CC(F)C1 (stereo not drawn) [Example 147, 2-(1-((2-(3,5-dichlorophenyl)-6-((2-(6-fluoro-4-methyl-1,4-diazepan-1-yl)pyrimidin-5-yl)oxy)pyridin-4-yl)methyl)piperidin-4-yl)acetic acid] | 44.2 | 31.7 | 42.8 |
| CNC1CCN(c2ncc(Oc3cc(CN4CCC(CC(=O)O)CC4)cc(-c4cc(Cl)cc(Cl)c4)n3)cn2)C1 (stereo not drawn) [Example 152, 2-(1-((2-(3,5-dichlorophenyl)-6-((2-(3-(methylamino)pyrrolidin-1-yl)pyrimidin-5-yl)oxy)pyridin-4-yl)methyl)piperidin-4-yl)acetic acid] | 44.1 | 16.3 | 19 |
| CN1CCN(c2ncc(Oc3cc(CN4CCO[C@H](CCO)CC4)cc(-c4cc(Cl)cc(Cl)c4)n3)cn2)CC1 [Example 153, (S)-2-(4-((2-(3,5-dichlorophenyl)-6-((2-(4-methylpiperazin-1-yl)pyrimidin-5-yl)oxy)pyridin-4-yl)methyl)-1,4-oxazepan-7-yl)ethanol] | 56.8 | 14.1 | 41.5 |
| CC(=O)CC1CCN(Cc2cc(Oc3cnc(N4CCN(C)CC4)nc3)nc(-c3cc(Cl)cc(Cl)c3)c2)CC1 [Example 155, 1-(1-((2-(3,5-dichlorophenyl)-6-((2-(4-methylpiperazin-1-yl)pyrimidin-5-yl)oxy)pyridin-4-yl)methyl)piperidin-4-yl)propan-2-one] | 42 | 14.5 | 8.98 |
| CN1CCCN(c2ccc(Oc3cc(CN4CCC(CC(=O)O)CC4)cc(-c4cc(Cl)cc(Cl)c4)n3)cn2)CC1 [Example 156, 2-(1-((2-(3,5-dichlorophenyl)-6-((6-(4-methyl-1,4-diazepan-1-yl)pyridin-3-yl)oxy)pyridin-4-yl)methyl)piperidin-4-yl)acetic acid] | 13.2 | 38.4 | 43.9 |
| CC(=O)NCC1CCN(Cc2cc(Oc3ccc(N4CCN(C)CC4)nn3)nc(-c3cc(Cl)cc(Cl)c3)c2)CC1 [Example 157, N-((1-((2-(3,5-dichlorophenyl)-6-((6-(4-methylpiperazin-1-yl)pyridazin-3-yl)oxy)pyridin-4-yl)methyl)piperidin-4-yl)methyl)acetamide] | 77.5 | 25.3 | 53.4 |
| NC1CCN(c2ncc(Oc3cc(CN4CCC(CC(=O)O)CC4)cc(-c4cc(Cl)cc(Cl)c4)n3)cn2)CC1 [Example 158, 2-(1-((2-((2-(4-aminopiperidin-1-yl)pyrimidin-5-yl)oxy)-6-(3,5-dichlorophenyl)pyridin-4-yl)methyl)piperidin-4-yl)acetic acid] | 18 | 2.85 | 19.3 |
| C[C@H]1CN(c2ncc(Oc3cc(CN4CCC(CC(=O)O)CC4)cc(-c4cc(Cl)cc(Cl)c4)n3)cn2)CCN1 [Example 159, (S)-2-(1-((2-(3,5-dichlorophenyl)-6-((2-(3-methylpiperazin-1-yl)pyrimidin-5-yl)oxy)pyridin-4-yl)methyl)piperidin-4-yl)acetic acid] | 49.8 | 22.9 | 17.5 |
| CC1(C)CN(c2ncc(Oc3cc(CN4CCC(CC(=O)O)CC4)cc(-c4cc(Cl)cc(Cl)c4)n3)cn2)CCN1 [Example 160, 2-(1-((2-(3,5-dichlorophenyl)-6-((2-(3,3-dimethylpiperazin-1-yl)pyrimidin-5-yl)oxy)pyridin-4-yl)methyl)piperidin-4-yl)acetic acid] | 35.1 | 21.7 | 49.5 |
| O=C(O)CC1CCN(Cc2cc(Oc3cnc(N4CC5CNCC5C4)nc3)nc(-c3cc(Cl)cc(Cl)c3)c2)CC1 (stereo not drawn) [Example 161, 2-(1-((2-(3,5-dichlorophenyl)-6-((2-(hexahydropyrrolo[3,4-c]pyrrol-2(1H)-yl)pyrimidin-5-yl)oxy)pyridin-4-yl)methyl)piperidin-4-yl)acetic acid] | 44.9 | 28.5 | 33 |
| O=C(O)CC1CCN(Cc2cc(Oc3cnc(N4CC5CC(C4)N5)nc3)nc(-c3cc(Cl)cc(Cl)c3)c2)CC1 [Example 162, 2-(1-((2-((2-(3,6-diazabicyclo[3.1.1]heptan-3-yl)pyrimidin-5-yl)oxy)-6-(3,5-dichlorophenyl)pyridin-4-yl)methyl)piperidin-4-yl) acetic acid] | 72.8 | 30.8 | 41.4 |
| O=C(O)CC1CCN(Cc2cc(Oc3cnc(N4CC5CCC(C4)N5)nc3)nc(-c3cc(Cl)cc(Cl)c3)c2)CC1 [Example 163, 2-(1-((2-((2-(3,8-diazabicyclo[3.2.1]octan-3-yl)pyrimidin-5-yl)oxy)-6-(3,5-dichlorophenyl)pyridin-4-yl)methyl)piperidin-4-yl)acetic acid] | 34.4 | 22 | 32.5 |
| O=C(O)CC1CCN(Cc2cc(Oc3cnc(N4CCNC5(CC5)C4)nc3)nc(-c3cc(Cl)cc(Cl)c3)c2)CC1 [Example 164, 2-(1-((2-((2-(4,7-diazaspiro[2.5]octan-7-yl)pyrimidin-5-yl)oxy)-6-(3,5-dichlorophenyl)pyridin-4-yl)methyl)piperidin-4-yl)acetic acid] | 36.1 | 34.6 | 45.5 |
| NC1(CO)CCN(c2ncc(Oc3cc(CN4CCC(CC(=O)O)CC4)cc(-c4cc(Cl)cc(Cl)c4)n3)cn2)CC1 [Example 165, 2-(1-((2-((2-(4-amino-4-(hydroxymethyl)piperidin-1-yl)pyrimidin-5-yl)oxy)-6-(3,5-dichlorophenyl)pyridin-4-yl)methyl)piperidin-4-yl) acetic acid] | 50.9 | 18.6 | 36.9 |
| O=C(O)CC1CCN(Cc2cc(Oc3ccc(N4CCCNCC4)nc3)nc(-c3cc(Cl)cc(Cl)c3)c2)CC1 [Example 166, 2-(1-((2-((6-(1,4-diazepan-1-yl)pyridin-3-yl)oxy)-6-(3,5-dichlorophenyl)pyridin-4-yl)methyl)piperidin-4-yl) acetic acid] | 45 | 35.3 | 21.3 |
| CC(=O)NCC1CCN(Cc2cc(Oc3cnc(N4CCN(CCS(C)(=O)=O)CC4)nc3)cc(-c3cc(Cl)cc(Cl)c3)c2)CC1 [Example 167, N-((1-((3′,5′-dichloro-5-((2-(4-(2-(methylsulfonyl)ethyl)piperazin-1-yl)pyrimidin-5-yl)oxy)-[1,1′-biphenyl]-3-yl)methyl)piperidin-4-yl)methyl)acetamide] | 0 | 0 | 41.3 |
| CC(=O)NCC1CCN(Cc2cc(Oc3cnc(N4CCN(CCC(=O)O)CC4)nc3)cc(-c3cc(Cl)cc(Cl)c3)c2)CC1 [Example 168] | 60.3 | 29.6 | 38.9 |
| CC(=O)NCC1CCN(Cc2cc(Oc3ccc(N4CCN(CCC(=O)O)CC4)nn3)nc(-c3cc(Cl)cc(Cl)c3)c2)CC1 [Example 169, 3-(4-(6-((4-((4-(acetamidomethyl)piperidin-1-yl)methyl)-6-(3,5-dichlorophenyl)pyridin-2-yl)oxy)pyridazin-3-yl)piperazin-1-yl)propanoic acid] | 16.4 | 0 | 0 |
| CC(=O)NCC1CCN(Cc2cc(Oc3cnc(N4CCN(CCC(N)=O)CC4)nc3)cc(-c3cc(Cl)cc(Cl)c3)c2)CC1 [Example 170, 3-(4-(5-((5-((4-(acetamidomethyl)piperidin-1-yl)methyl)-3′,5′-dichloro-[1,1′-biphenyl]-3-yl)oxy)pyrimidin-2-yl)piperazin-1-yl)propanamide] | 10.3 | 7.29 | 57.6 |
| CNC(=O)NCC1CCN(Cc2cc(Oc3cnc(N4CCN(CCCO)CC4)nc3)nc(-c3cc(Cl)cc(Cl)c3)c2)CC1 [Example 171, 1-((1-((2-(3,5-dichlorophenyl)-6-((2-(4-(3-hydroxypropyl)piperazin-1-yl)pyrimidin-5-yl)oxy)pyridin-4-yl)methyl)piperidin-4-yl)methyl)-3-methylurea] | 0 | 0 | 41.7 |
| O=C(O)CC1CCN(Cc2cc(Oc3cnc(N4CCN(CC(O)CO)CC4)nc3)nc(-c3cc(Cl)cc(Cl)c3)c2)CC1 (stereo not drawn) [Example 177, 2-(1-((2-(3,5-dichlorophenyl)-6-((2-(4-(2,3-dihydroxypropyl)piperazin-1-yl)pyrimidin-5-yl)oxy)pyridin-4-yl)methyl)piperidin-4-yl)acetic acid] | 37 | 14.3 | 24 |
| CC(=O)NCC1CCN(Cc2cc(Oc3ccc(N4CC[N+](C)([O-])CC4)nc3)nc(-c3cc(Cl)cc(Cl)c3)c2)CC1 [Example 178, 4-(5-((4-((4-(acetamidomethyl)piperidin-1-yl)methyl)-6-(3,5-dichlorophenyl)pyridin-2-yl)oxy)pyridin-2-yl)-1-methylpiperazinel-oxide] | 57.7 | 30.4 | 71.1 |
| CC(=O)NCC1CCN(Cc2cc(Oc3ccc(N4CC[N+](CCO)(CCO)CC4)nc3)nc(-c3cc(Cl)cc(Cl)c3)c2)CC1 [Example 179, 4-(5-((4-((4-(acetamidomethyl)piperidin-1-yl)methyl)-6-(3,5-dichlorophenyl)pyridin-2-yl)oxy)pyridin-2-yl)-1,1-bis(2-hydroxyethyl) piperazin-1-ium] | 27.4 | 5.87 | 42.1 |
